Test results reported in patent US20220096516A1, “OLIGONUCLEOTIDE MOLECULE AND APPLICATION THEREOF IN TUMOR THERAPY” (Ractigen Therapeutics, priority 2019, published 2022).
d = 2'-deoxy (DNA); r = 2'-OH (RNA)

These substances were tested on LHPP gene (assay: High-throughput screening of saRNAs targeting LHPP promoter: LHPP mRNA by one-step RT-qPCR in Huh7 cells). Conditions: 10 nM saRNA, 72 hours, relative to control (Mock).
Format: cell-based, human
Outline: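 Huh7 cells were transfected with 10 nM saRNA using RNAiMax and lysed 72 h later. LHPP mRNA was quantified by one-step RT-qPCR in triplicate wells. Expression was normalised to HPRT1 and TBP and given as fold change versus mock-transfected cells.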

| Substance | Fold of changes in relative LHPP mRNA expression level | Fold of changes in relative LHPP mRNA expression level (log2) |
| --- | --- | --- |
| RAG7-198: saRNA duplex; sense UACAGGUGCCUUCUUGUCUTT (SEQ ID NO: 134), antisense AGACAAGAAGGCACCUGUATT (SEQ ID NO: 298) (sugars from the 5' end r19 d2, backbone not given here) | 1.16 fold | 0.21 log2 |
| RAG7-112: saRNA duplex; sense UGGGAAGAAAGCUUCCGAATT (SEQ ID NO: 82), antisense UUCGGAAGCUUUCUUCCCATT (SEQ ID NO: 246) (sugars from the 5' end r19 d2, backbone not given here) | 1.26 fold | 0.33 log2 |
| RAG7-894: saRNA duplex; sense UAUGUUGGACCAGAAGUAATT (SEQ ID NO: 37), antisense UUACUUCUGGUCCAACAUATT (SEQ ID NO: 201) (sugars from the 5' end r19 d2, backbone not given here) | 1.45 fold | 0.54 log2 |
| RAG7-126: saRNA duplex; sense GUCCGCUGAUCUCCUGGGATT (SEQ ID NO: 45), antisense UCCCAGGAGAUCAGCGGACTT (SEQ ID NO: 209) (sugars from the 5' end r19 d2, backbone not given here) | 1.39 fold | 0.48 log2 |
| RAG7-829: saRNA duplex; sense UUGAGGAAACUCCUCCCUUTT (SEQ ID NO: 29), antisense AAGGGAGGAGUUUCCUCAATT (SEQ ID NO: 193) (sugars from the 5' end r19 d2, backbone not given here) | 1.50 fold | 0.59 log2 |
| RAG7-89: saRNA duplex; sense ACACCGUUUCAGGGGCGAGTT (SEQ ID NO: 104), antisense CUCGCCCCUGAAACGGUGUTT (SEQ ID NO: 268) (sugars from the 5' end r19 d2, backbone not given here) | 1.21 fold | 0.28 log2 |
| RAG7-170: saRNA duplex; sense UUUGACCUUUCUUAGGGACTT (SEQ ID NO: 132), antisense GUCCCUAAGAAAGGUCAAATT (SEQ ID NO: 296) (sugars from the 5' end r19 d2, backbone not given here) | 1.16 fold | 0.21 log2 |
| RAG7-690: saRNA duplex; sense CCUAUGCAUCCUCAUCUAUTT (SEQ ID NO: 42), antisense AUAGAUGAGGAUGCAUAGGTT (SEQ ID NO: 206) (sugars from the 5' end r19 d2, backbone not given here) | 1.42 fold | 0.51 log2 |
| RAG7-111: saRNA duplex; sense GGGAAGAAAGCUUCCGAAATT (SEQ ID NO: 117), antisense UUUCGGAAGCUUUCUUCCCTT (SEQ ID NO: 281) (sugars from the 5' end r19 d2, backbone not given here) | 1.18 fold | 0.24 log2 |
| RAG7-162: saRNA duplex; sense UUCUUAGGGACUUGUUUUCTT (SEQ ID NO: 19), antisense GAAAACAAGUCCCUAAGAATT (SEQ ID NO: 183) (sugars from the 5' end r19 d2, backbone not given here) | 1.56 fold | 0.64 log2 |
| RAG7-885: saRNA duplex; sense CCAGAAGUAAAGUGUUCUCTT (SEQ ID NO: 147), antisense GAGAACACUUUACUUCUGGTT (SEQ ID NO: 311) (sugars from the 5' end r19 d2, backbone not given here) | 1.14 fold | 0.18 log2 |
| RAG7-886: saRNA duplex; sense ACCAGAAGUAAAGUGUUCUTT (SEQ ID NO: 25), antisense AGAACACUUUACUUCUGGUTT (SEQ ID NO: 189) (sugars from the 5' end r19 d2, backbone not given here) | 1.52 fold | 0.60 log2 |
| RAG7-697: saRNA duplex; sense CCCAGGUCCUAUGCAUCCUTT (SEQ ID NO: 41), antisense AGGAUGCAUAGGACCUGGGTT (SEQ ID NO: 205) (sugars from the 5' end r19 d2, backbone not given here) | 1.43 fold | 0.51 log2 |
| RAG7-189: saRNA duplex; sense CUUCUUGUCUCAAUUUGCCTT (SEQ ID NO: 35), antisense GGCAAAUUGAGACAAGAAGTT (SEQ ID NO: 199) (sugars from the 5' end r19 d2, backbone not given here) | 1.47 fold | 0.56 log2 |
| RAG7-704: saRNA duplex; sense UUCUCAGCCCAGGUCCUAUTT (SEQ ID NO: 112), antisense AUAGGACCUGGGCUGAGAATT (SEQ ID NO: 276) (sugars from the 5' end r19 d2, backbone not given here) | 1.19 fold | 0.26 log2 |
| RAG7-833: saRNA duplex; sense GCCAUUGAGGAAACUCCUCTT (SEQ ID NO: 138), antisense GAGGAGUUUCCUCAAUGGCTT (SEQ ID NO: 302) (sugars from the 5' end r19 d2, backbone not given here) | 1.14 fold | 0.20 log2 |
| RAG7-44: saRNA duplex; sense CCAGUUCCGGGUUUGCACCTT (SEQ ID NO: 121), antisense GGUGCAAACCCGGAACUGGTT (SEQ ID NO: 285) (sugars from the 5' end r19 d2, backbone not given here) | 1.18 fold | 0.24 log2 |
| RAG7-887: saRNA duplex; sense GACCAGAAGUAAAGUGUUCTT (SEQ ID NO: 51), antisense GAACACUUUACUUCUGGUCTT (SEQ ID NO: 215) (sugars from the 5' end r19 d2, backbone not given here) | 1.37 fold | 0.46 log2 |
| RAG7-132: saRNA duplex; sense CUCUUUGUCCGCUGAUCUCTT (SEQ ID NO: 4), antisense GAGAUCAGCGGACAAAGAGTT (SEQ ID NO: 168) (sugars from the 5' end r19 d2, backbone not given here) | 1.86 fold | 0.90 log2 |
| RAG7-147: saRNA duplex; sense UUUCUGCUUUUCCUGCUCUTT (SEQ ID NO: 66), antisense AGAGCAGGAAAAGCAGAAATT (SEQ ID NO: 230) (sugars from the 5' end r19 d2, backbone not given here) | 1.31 fold | 0.39 log2 |
| RAG7-34: saRNA duplex; sense GUUUGCACCCGGUCUUCUUTT (SEQ ID NO: 26), antisense AAGAAGACCGGGUGCAAACTT (SEQ ID NO: 190) (sugars from the 5' end r19 d2, backbone not given here) | 1.51 fold | 0.59 log2 |
| RAG7-174: saRNA duplex; sense UGCCUUUGACCUUUCUUAGTT (SEQ ID NO: 49), antisense CUAAGAAAGGUCAAAGGCATT (SEQ ID NO: 213) (sugars from the 5' end r19 d2, backbone not given here) | 1.38 fold | 0.47 log2 |
| RAG7-851: saRNA duplex; sense CUUGAAAGGUUCCGAGGGGTT (SEQ ID NO: 163), antisense CCCCUCGGAACCUUUCAAGTT (SEQ ID NO: 327) (sugars from the 5' end r19 d2, backbone not given here) | 1.10 fold | 0.14 log2 |
| RAG7-696: saRNA duplex; sense CCAGGUCCUAUGCAUCCUCTT (SEQ ID NO: 17), antisense GAGGAUGCAUAGGACCUGGTT (SEQ ID NO: 181) (sugars from the 5' end r19 d2, backbone not given here) | 1.58 fold | 0.66 log2 |
| RAG7-104: saRNA duplex; sense AAGCUUCCGAAAAGGACACTT (SEQ ID NO: 43), antisense GUGUCCUUUUCGGAAGCUUTT (SEQ ID NO: 207) (sugars from the 5' end r19 d2, backbone not given here) | 1.41 fold | 0.50 log2 |
| RAG7-735: saRNA duplex; sense GGGUUUAACGCAUUGUGAUTT (SEQ ID NO: 114), antisense AUCACAAUGCGUUAAACCCTT (SEQ ID NO: 278) (sugars from the 5' end r19 d2, backbone not given here) | 1.19 fold | 0.25 log2 |
| RAG7-832: saRNA duplex; sense CCAUUGAGGAAACUCCUCCTT (SEQ ID NO: 139), antisense GGAGGAGUUUCCUCAAUGGTT (SEQ ID NO: 303) (sugars from the 5' end r19 d2, backbone not given here) | 1.14 fold | 0.19 log2 |
